Measured values taken from ChEMBL document CHEMBL4828717, “Synthetic cajaninstilbene acid derivatives eradicate methicillin-resistant Staphylococcus aureus persisters and biofilms” (Eur J Med Chem, 2021).

Assays:
Staphylococcus aureus [1] = experiment: Antibacterial activity against Staphylococcus aureus ATCC 25923 assessed as reduction in microbial growth after 16 to 18 hrs by microbroth dilution method; type: functional; conditions: time 16-18 hrs
Staphylococcus aureus [2] = experiment: Antibacterial activity against methicillin resistant Staphylococcus aureus ATCC 43300 assessed as reduction in microbial growth after 16 to 18 hrs by microbroth dilution method; type: functional; conditions: time 16-18 hrs
Staphylococcus aureus [3] = experiment: Antibacterial activity against methicillin resistant Staphylococcus aureus ATCC 62202 assessed as reduction in microbial growth after 16 to 18 hrs by microbroth dilution method; type: functional; conditions: time 16-18 hrs
Staphylococcus aureus [4] = experiment: Antibacterial activity against methicillin resistant Staphylococcus aureus ATCC 52056 assessed as reduction in microbial growth after 16 to 18 hrs by microbroth dilution method; type: functional; conditions: time 16-18 hrs
Staphylococcus aureus [5] = experiment: Antibacterial activity against methicillin resistant Staphylococcus aureus ATCC513045 assessed as reduction in microbial growth after 16 to 18 hrs by microbroth dilution method; type: functional; conditions: time 16-18 hrs
Staphylococcus aureus [6] = experiment: Antibacterial activity against methicillin resistant Staphylococcus aureus ATCC515992 assessed as reduction in microbial growth after 16 to 18 hrs by microbroth dilution method; type: functional; conditions: time 16-18 hrs
Staphylococcus aureus [7] = experiment: Antibacterial activity against methicillin resistant Staphylococcus aureus ATCC49800 assessed as reduction in microbial growth after 16 to 18 hrs by microbroth dilution method; type: functional; conditions: time 16-18 hrs
Staphylococcus aureus [8] = experiment: Antibacterial activity against methicillin resistant Staphylococcus aureus ATCC49025 assessed as reduction in microbial growth after 16 to 18 hrs by microbroth dilution method; type: functional; conditions: time 16-18 hrs
Staphylococcus aureus [9] = experiment: Antibacterial activity against methicillin resistant Staphylococcus aureus ATCC48073 assessed as reduction in microbial growth after 16 to 18 hrs by microbroth dilution method; type: functional; conditions: time 16-18 hrs
Staphylococcus aureus [10] = experiment: Antibacterial activity against methicillin resistant Staphylococcus aureus ATCC48966 assessed as reduction in microbial growth after 16 to 18 hrs by microbroth dilution method; type: functional; conditions: time 16-18 hrs
Staphylococcus aureus [11] = experiment: Antibacterial activity against methicillin resistant Staphylococcus aureus ATCC49008 assessed as reduction in microbial growth after 16 to 18 hrs by microbroth dilution method; type: functional; conditions: time 16-18 hrs
Staphylococcus aureus [12] = experiment: Antibacterial activity against methicillin resistant Staphylococcus aureus ATCC48706 assessed as reduction in microbial growth after 16 to 18 hrs by microbroth dilution method; type: functional; conditions: time 16-18 hrs
Escherichia coli = experiment: Antibacterial activity against Escherichia coli ATCC25922 assessed as reduction in microbial growth after 16 to 18 hrs by microbroth dilution method; type: functional; conditions: ATCC 25922, time 16-18 hrs
Pseudomonas aeruginosa = experiment: Antibacterial activity against Pseudomonas aeruginosa ATCC27853 assessed as reduction in microbial growth after 16 to 18 hrs by microbroth dilution method; type: functional; conditions: time 16-18 hrs
Enterococcus faecalis = experiment: Antibacterial activity against Enterococcus faecalis ATCC29212 assessed as reduction in microbial growth after 16 to 18 hrs by microbroth dilution method; type: functional; conditions: ATCC 29212, time 16-18 hrs
RAW264.7 = experiment: Cytotoxicity against mouse RAW264.7 cells assessed as cell viability at 10 ug/ml measured after 24 hrs by MTT assay; type: cell-based; conditions: raw264.7, 24 h, dose 10 µg/ml
L02 = experiment: Cytotoxicity against human L02 cells assessed as cell viability at 10 ug/ml measured after 24 hrs by MTT assay; type: cell-based; conditions: l02, 24 h, dose 10 µg/ml

| Compound | MIC (Staphylococcus aureus [1]) | MIC (Staphylococcus aureus [2]) | MIC (Staphylococcus aureus [3]) | MIC (Staphylococcus aureus [4]) | MIC (Staphylococcus aureus [5]) | MIC (Staphylococcus aureus [6]) | MIC (Staphylococcus aureus [7]) | MIC (Staphylococcus aureus [8]) | MIC (Staphylococcus aureus [9]) | MIC (Staphylococcus aureus [10]) | MIC (Staphylococcus aureus [11]) | MIC (Staphylococcus aureus [12]) | MIC (Escherichia coli) | MIC (Pseudomonas aeruginosa) | MIC (Enterococcus faecalis) | Activity (RAW264.7) | Activity (L02) |
| --- | --- | --- | --- | --- | --- | --- | --- | --- | --- | --- | --- | --- | --- | --- | --- | --- | --- |
| CC(C)=CCc1c(OC2CCCCCC2)cc(/C=C/c2ccc(F)cc2)c(C(=O)O)c1O | 2 µg/mL | 1 µg/mL | 2 µg/mL | 1 µg/mL | 2 µg/mL | 2 µg/mL | 4 µg/mL | 2 µg/mL | 2 µg/mL | 2 µg/mL | 2 µg/mL | 2 µg/mL | > 32 µg/mL | > 32 µg/mL | > 32 µg/mL | Toxic | Toxic |
| CCCC(CC)Oc1cc(/C=C/c2ccc(C(F)(F)F)cc2)c(C(=O)O)c(O)c1CC=C(C)C (stereo not drawn) | 4 µg/mL | 2 µg/mL | 2 µg/mL | 2 µg/mL | 2 µg/mL | 4 µg/mL | 4 µg/mL | 8 µg/mL | 4 µg/mL | 8 µg/mL | 8 µg/mL | 4 µg/mL | > 32 µg/mL | > 32 µg/mL | > 32 µg/mL | Toxic | Toxic |
| CCC(CC)Oc1cc(/C=C/c2ccc(F)cc2)c(C(=O)O)c(O)c1CC=C(C)C | 2 µg/mL | 2 µg/mL | 2 µg/mL | 2 µg/mL | 2 µg/mL | 4 µg/mL | 2 µg/mL | 2 µg/mL | 4 µg/mL | 2 µg/mL | 2 µg/mL | 2 µg/mL | > 32 µg/mL | > 32 µg/mL | > 32 µg/mL | Toxic | Toxic |
| CC(C)=CCc1c(OC2CCCCC2)cc(/C=C/c2ccc(F)cc2)c(C(=O)O)c1O | 2 µg/mL | 2 µg/mL | 2 µg/mL | 2 µg/mL | 2 µg/mL | 4 µg/mL | 4 µg/mL | 4 µg/mL | 4 µg/mL | 4 µg/mL | 4 µg/mL | 4 µg/mL | > 32 µg/mL | > 32 µg/mL | > 32 µg/mL | Toxic | Toxic |
| CC(C)=CCc1c(OCC(F)F)cc(/C=C/c2ccc(C(F)(F)F)cc2)c(C(=O)O)c1O | 2 µg/mL | 2 µg/mL | 2 µg/mL | 2 µg/mL | 2 µg/mL | 2 µg/mL | 2 µg/mL | 2 µg/mL | 2 µg/mL | 2 µg/mL | 2 µg/mL | 2 µg/mL | > 32 µg/mL | > 32 µg/mL | > 32 µg/mL | Toxic | Toxic |
| CC(C)=CCc1c(OCCCC(F)(F)F)cc(/C=C/c2ccc(C(F)(F)F)cc2)c(C(=O)O)c1O | 2 µg/mL | 1 µg/mL | 4 µg/mL | 2 µg/mL | 2 µg/mL | 2 µg/mL | 4 µg/mL | 4 µg/mL | 4 µg/mL | 4 µg/mL | 4 µg/mL | 4 µg/mL | > 32 µg/mL | > 32 µg/mL | > 32 µg/mL | Toxic | Toxic |
| COc1cc(/C=C/c2ccccc2)c(C(=O)O)c(O)c1CC=C(C)C | 8 µg/mL | 16 µg/mL | 16 µg/mL | 16 µg/mL | 16 µg/mL | 16 µg/mL | 8 µg/mL | 8 µg/mL | 8 µg/mL | 8 µg/mL | 8 µg/mL | 8 µg/mL | > 32 µg/mL | > 32 µg/mL | > 32 µg/mL |  |  |
| CCC(C)Oc1cc(/C=C/c2ccc(F)cc2)c(C(=O)O)c(O)c1CC=C(C)C (stereo not drawn) | 2 µg/mL | 2 µg/mL | 2 µg/mL | 2 µg/mL | 2 µg/mL | 4 µg/mL | 4 µg/mL | 4 µg/mL | 4 µg/mL | 4 µg/mL | 4 µg/mL | 4 µg/mL | > 32 µg/mL | > 32 µg/mL | > 32 µg/mL | Toxic | Toxic |
| CC(C)=CCc1c(OCCCF)cc(/C=C/c2ccc(C(F)(F)F)cc2)c(C(=O)O)c1O | 2 µg/mL | 2 µg/mL | 4 µg/mL | 2 µg/mL | 2 µg/mL | 4 µg/mL | 4 µg/mL | 4 µg/mL | 4 µg/mL | 4 µg/mL | 4 µg/mL | 4 µg/mL | > 32 µg/mL | > 32 µg/mL | > 32 µg/mL | Toxic | Toxic |
| CC(C)=CCc1c(OC2CCCC2)cc(/C=C/c2ccc(C(F)(F)F)cc2)c(C(=O)O)c1O | 2 µg/mL | 2 µg/mL | 2 µg/mL | 2 µg/mL | 2 µg/mL | 2 µg/mL | 2 µg/mL | 2 µg/mL | 2 µg/mL | 2 µg/mL | 2 µg/mL | 2 µg/mL | > 32 µg/mL | > 32 µg/mL | > 32 µg/mL | Toxic | Toxic |
| CC(C)=CCc1c(OCC(F)(F)F)cc(/C=C/c2ccc(F)cc2)c(C(=O)O)c1O | 4 µg/mL | 2 µg/mL | 4 µg/mL | 2 µg/mL | 4 µg/mL | 4 µg/mL | 4 µg/mL | 4 µg/mL | 4 µg/mL | 4 µg/mL | 4 µg/mL | 4 µg/mL | > 32 µg/mL | > 32 µg/mL | > 32 µg/mL | Toxic | Toxic |
| CC(C)=CCc1c(OC(C)C)cc(/C=C/c2ccc(F)cc2)c(C(=O)O)c1O | 4 µg/mL | 4 µg/mL | 4 µg/mL | 2 µg/mL | 8 µg/mL | 2 µg/mL | 4 µg/mL | 4 µg/mL | 4 µg/mL | 4 µg/mL | 4 µg/mL | 4 µg/mL | > 32 µg/mL | > 32 µg/mL | > 32 µg/mL | Toxic | Toxic |
| CCC(CC)Oc1cc(/C=C/c2ccc(C(F)(F)F)cc2)c(C(=O)O)c(O)c1CC=C(C)C | 1 µg/mL | 2 µg/mL | 1 µg/mL | 1 µg/mL | 1 µg/mL | 2 µg/mL | 2 µg/mL | 2 µg/mL | 2 µg/mL | 2 µg/mL | 2 µg/mL | 2 µg/mL | > 32 µg/mL | > 32 µg/mL | > 32 µg/mL | Toxic | Toxic |
| CC(C)=CCc1c(OCC(F)F)cc(/C=C/c2ccc(F)cc2)c(C(=O)O)c1O | 4 µg/mL | 4 µg/mL | 4 µg/mL | 2 µg/mL | 4 µg/mL | 4 µg/mL | 4 µg/mL | 4 µg/mL | 4 µg/mL | 4 µg/mL | 4 µg/mL | 4 µg/mL | > 32 µg/mL | > 32 µg/mL | > 32 µg/mL | Toxic | Toxic |
| NC[C@H]1O[C@H](O[C@H]2[C@H](O)[C@@H](O[C@H]3O[C@H](CO)[C@@H](O)[C@H](N)[C@H]3O)[C@H](N)C[C@@H]2N)[C@H](N)[C@@H](O)[C@@H]1O [BEKANAMYCIN] |  | 128 µg/mL |  |  |  |  |  |  |  |  |  |  |  |  |  |  |  |
| CCn1cc(C(=O)O)c(=O)c2cc(F)c(N3CCNCC3)cc21 [NORFLOXACIN] | 2 µg/mL | 32 µg/mL | 2 µg/mL | 2 µg/mL | 32 µg/mL | 32 µg/mL | 1 µg/mL | 1 µg/mL | 1 µg/mL | 1 µg/mL | 1 µg/mL | 2 µg/mL | > 32 µg/mL | > 32 µg/mL | > 32 µg/mL |  |  |
| CC1(C)S[C@@H]2[C@H](NC(=O)[C@H](N)c3ccccc3)C(=O)N2[C@H]1C(=O)O [AMPICILLIN] | 4 µg/mL | > 128 µg/mL | > 128 µg/mL | > 128 µg/mL | > 128 µg/mL | > 128 µg/mL | > 128 µg/mL | > 128 µg/mL | > 128 µg/mL | > 128 µg/mL | > 128 µg/mL | > 128 µg/mL | > 32 µg/mL | > 32 µg/mL | > 32 µg/mL |  |  |
| GENTAMICIN |  | 16 µg/mL |  |  |  |  |  |  |  |  |  |  |  |  |  |  |  |
